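48-hour exposure; five concentrations; linearly interpolated endpoints. TGI: total growth inhibition.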
Experiments:
Experiment in all cases: growth of human tumour cells (NCI), 48 h
SK-MEL-2 melanoma = system: SK-MEL-2 melanoma
786-0 renal = system: 786-0 renal
OVCAR-3 ovarian = system: OVCAR-3 ovarian
NCI/ADR-RES ovarian = system: NCI/ADR-RES ovarian
DU-145 prostate = system: DU-145 prostate
MCF7 breast = system: MCF7 breast
SK-MEL-28 melanoma = system: SK-MEL-28 melanoma
EKVX NSCLC = system: EKVX NSCLC
NCI-H460 lung = system: NCI-H460 lung
ACHN renal = system: ACHN renal
SF-539 CNS = system: SF-539 CNS
MDA-N = system: MDA-N
BT-549 breast = system: BT-549 breast
MDA-MB-231 breast = system: MDA-MB-231 breast
RXF 393 renal = system: RXF 393 renal
SNB-75 CNS = system: SNB-75 CNS
HOP-62 NSCLC = system: HOP-62 NSCLC
OVCAR-8 ovarian = system: OVCAR-8 ovarian
SK-MEL-5 melanoma = system: SK-MEL-5 melanoma
SW-620 colon = system: SW-620 colon
HCC-2998 colon = system: HCC-2998 colon
RPMI-8226 leukemia = system: RPMI-8226 leukemia
IGROV1 ovarian = system: IGROV1 ovarian
HL-60(TB) leukemia = system: HL-60(TB) leukemia
OVCAR-4 ovarian = system: OVCAR-4 ovarian
CAKI-1 renal = system: CAKI-1 renal
HCT-116 colon = system: HCT-116 colon
UO-31 renal = system: UO-31 renal
HT29 colon = system: HT29 colon
PC-3 prostate = system: PC-3 prostate
KM12 colon = system: KM12 colon
HCT-15 colon = system: HCT-15 colon
UACC-257 melanoma = system: UACC-257 melanoma
K-562 leukemia = system: K-562 leukemia
TK-10 renal = system: TK-10 renal
SR leukemia = system: SR leukemia
A498 renal = system: A498 renal
SF-295 CNS = system: SF-295 CNS
MOLT-4 leukemia = system: MOLT-4 leukemia
U251 CNS = system: U251 CNS
M14 melanoma = system: M14 melanoma
HOP-92 NSCLC = system: HOP-92 NSCLC
OVCAR-5 ovarian = system: OVCAR-5 ovarian
HS 578T breast = system: HS 578T breast
NCI-H23 lung = system: NCI-H23 lung
MDA-MB-435 = system: MDA-MB-435
A549 NSCLC = system: A549 NSCLC
NCI-H226 lung = system: NCI-H226 lung
SF-268 CNS = system: SF-268 CNS
LOX IMVI melanoma = system: LOX IMVI melanoma
NCI-H522 lung = system: NCI-H522 lung
T-47D breast = system: T-47D breast

C/C=C(\C)[C@@H](O)C(=O)O[C@@H]1CC(C(C)(C)O)[C@](C)(CCC(=O)OC)[C@H]2[C@H](OC(=O)[C@H](O)[C@H](C)CC)C[C@]3(C)C(=CC[C@H]3[C@H]3CO[C@H](C=C(C)C)C3)[C@]12C (some centres not stated)
TGI (SK-MEL-2 melanoma): 32.4 µM | TGI (786-0 renal): 29.5 µM | TGI (OVCAR-3 ovarian): 44.2 µM | TGI (NCI/ADR-RES ovarian): 30.5 µM | TGI (DU-145 prostate): 98.5 µM | TGI (MCF7 breast): 42.1 µM | TGI (SK-MEL-28 melanoma): 40.3 µM | TGI (EKVX NSCLC): 29.8 µM | TGI (NCI-H460 lung): 38.6 µM | TGI (ACHN renal): 34.1 µM | TGI (SF-539 CNS): 35.8 µM | TGI (MDA-N): 35.4 µM | TGI (BT-549 breast): 32.7 µM | TGI (MDA-MB-231 breast): 38.4 µM | TGI (RXF 393 renal): 32.9 µM | TGI (SNB-75 CNS): 37.6 µM | TGI (HOP-62 NSCLC): > 100 µM | TGI (OVCAR-8 ovarian): 33.9 µM | TGI (SK-MEL-5 melanoma): 33.2 µM | TGI (SW-620 colon): 58 µM | TGI (HCC-2998 colon): 29.7 µM | TGI (RPMI-8226 leukemia): 38.3 µM | TGI (IGROV1 ovarian): > 100 µM | TGI (HL-60(TB) leukemia): 40.6 µM | TGI (OVCAR-4 ovarian): 41.8 µM | TGI (CAKI-1 renal): 87.2 µM | TGI (HCT-116 colon): 31.9 µM | TGI (UO-31 renal): 33.5 µM | TGI (HT29 colon): 34.5 µM | TGI (PC-3 prostate): 34.9 µM | TGI (KM12 colon): 65.3 µM | TGI (HCT-15 colon): 37.4 µM | TGI (UACC-257 melanoma): 49.9 µM | TGI (K-562 leukemia): 42.4 µM | TGI (TK-10 renal): 61.7 µM | TGI (SR leukemia): 40.2 µM | TGI (A498 renal): 60.2 µM | TGI (SF-295 CNS): > 100 µM | TGI (MOLT-4 leukemia): 48.2 µM | TGI (U251 CNS): 33.4 µM | TGI (M14 melanoma): 32.8 µM | TGI (HOP-92 NSCLC): 71.7 µM | TGI (OVCAR-5 ovarian): 43.2 µM | TGI (HS 578T breast): 41 µM | TGI (NCI-H23 lung): 37.7 µM | TGI (MDA-MB-435): 52.5 µM | TGI (A549 NSCLC): 61.7 µM | TGI (NCI-H226 lung): 50.9 µM | TGI (SF-268 CNS): 36.8 µM | TGI (LOX IMVI melanoma): 31.4 µM | TGI (NCI-H522 lung): 29.5 µM | TGI (T-47D breast): 87.1 µM

Reference: PubChem BioAssay (NCI)
